Reference: PMC10584882 (Communications Biology, 2023)
Where “and” joins values, the source holds several entries; their conditions need not be identical. Equal entries are not always repeated. Entries after “also recorded” stand apart in the source; their conditions may differ.

Legend:
SARS-CoV-2 [1] = assay: Viral loading determination via RT-qPCR in VERO-CCL81 cells; format: cell-based; conditions: for Viral titer (% control): VERO CCL81, RT-qPCR, experiments 1 and 2
SARS-CoV-2 [2] = assay: Anti-viral experiment with Golden Syrian hamsters: viral load in lungs and trachea; format: in vivo, Golden Syrian hamsters (Mesocricetus auratus); conditions: 1 mg/kg s.c. daily from day 1; for RNA - lung / RNA - trachea / titer - lung / titer - trachea: individual hamsters; for viral load in trachea versus untreated group (in words): TCID50
CatL = target: T1, CatL (Homo sapiens, UniProt P07711); assay: Reversibility of covalent cathepsin inhibition (CatL, 60 min incubation); format: biochemical; conditions: 1 nM CatL, 1–80 nM inhibitor, 37 °C
T1 construct: made in house
T1 sequence (P07711 114-333): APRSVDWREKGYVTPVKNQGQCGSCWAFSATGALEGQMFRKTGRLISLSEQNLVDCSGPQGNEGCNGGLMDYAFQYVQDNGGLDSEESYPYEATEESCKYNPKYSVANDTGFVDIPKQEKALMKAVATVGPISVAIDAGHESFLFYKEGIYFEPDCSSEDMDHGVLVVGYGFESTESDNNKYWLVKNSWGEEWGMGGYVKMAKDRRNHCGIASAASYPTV
Excerpt: We observed no increase in relative inhibition over time, thus concluding that the covalent bond between cathepsins and inhibitors is reversible.

LC-HK2 cells = assay: Cell viability assay (CellTiter-Glo), LC-HK2; format: cell-based, human; conditions: for Cell viability (% control): LC-HK2, 72 h, replicates
Protocol: VERO-CCL81 was seeded in 96-well plates at a density of 1.5×10^4 cells/well, while LC-HK2 was seeded at a density of 3×10^4 cells/well, following 24 h incubation at 37 °C and 5% CO2 atmosphere. The cell culture media was replaced by serial dilutions of the compounds and the cell viability was determined 72 h post-treatment via CellTiter-Glo® Luminescent Cell Viability Assay (Promega), following the manufacturer’s instructions. Luminescent signal was recorded using a CLARIOstar multi-mode microplate reader (BMG Labtech, Germany). Graphs were generated using GraphPad Prism software version 8.0 (La Jolla, CA, USA, www.graphpad.com). Samples deemed to be technical failures and extreme outlier were removed.

SARS-CoV-2 [3] = assay: Viral loading determination via RT-qPCR in LC-HK2 cells; format: cell-based; conditions: for Viral titer (% control): LC-HK2, RT-qPCR

CCCC[C@H](NC(=O)[C@H](CC(C)C)NC(=O)OCc1ccccc1)C(O)S(=O)(=O)[O-].[Na+] (stereo partly drawn) [S-Calpeptin]
Viral titer (% control) (SARS-CoV-2 [1]; 0.0781 μM): 100 % control | Viral titer (% control) (SARS-CoV-2 [1]; 0.1563 μM): 100 % control | Viral titer (% control) (SARS-CoV-2 [1]; 0.3125 μM): 100 % control | Viral titer (% control) (SARS-CoV-2 [1]; 0.625 μM, listed as S-Calpepin): 65 % control and 61.77 % control | Viral titer (% control) (SARS-CoV-2 [1]; 1.25 μM, listed as S-Calpepin): 24 % control and 43.33 % control | Viral titer (% control) (SARS-CoV-2 [1]; 2.5 μM, listed as S-Calpepin): 24.98 % control and 48.08 % control | Viral titer (% control) (SARS-CoV-2 [1]; 5 μM): 27.38 % control | EC50 (SARS-CoV-2 [1]; VERO-CCL81, RT-qPCR, 48 h post-infection, read-out: Viral titer EC50): 700 nM | RNA - lung (SARS-CoV-2 [2]; day 3 p.i., 1 mg/kg): 2.194 SARS-CoV-2 RNA copies/β actin RNA copies and 2.076 SARS-CoV-2 RNA copies/β actin RNA copies and 2.135 SARS-CoV-2 RNA copies/β actin RNA copies and 5.784 SARS-CoV-2 RNA copies/β actin RNA copies and 2.611 SARS-CoV-2 RNA copies/β actin RNA copies | RNA - trachea (SARS-CoV-2 [2]; day 3 p.i., 1 mg/kg): 2.441 SARS-CoV-2 RNA copies/β actin RNA copies and 1.131 SARS-CoV-2 RNA copies/β actin RNA copies and 3.086 SARS-CoV-2 RNA copies/β actin RNA copies and 1.769 SARS-CoV-2 RNA copies/β actin RNA copies and 1.594 SARS-CoV-2 RNA copies/β actin RNA copies | titer - lung (SARS-CoV-2 [2]; day 3 p.i., 1 mg/kg): 10.089 log TCID50/g and 9.011 log TCID50/g and 10.277 log TCID50/g and 9.5756 log TCID50/g and 8.981 log TCID50/g | titer - trachea (SARS-CoV-2 [2]; day 3 p.i., 1 mg/kg): 5.2099 log TCID50/g and 3.791 log TCID50/g and 5.949 log TCID50/g and 7.023 log TCID50/g and 7.625 log TCID50/g | RNA - lung (SARS-CoV-2 [2]; day 5 p.i., 1 mg/kg): 2.363 SARS-CoV-2 RNA copies/β actin RNA copies and 1.994 SARS-CoV-2 RNA copies/β actin RNA copies and 2.073 SARS-CoV-2 RNA copies/β actin RNA copies and 2.178 SARS-CoV-2 RNA copies/β actin RNA copies and 1.943 SARS-CoV-2 RNA copies/β actin RNA copies | RNA - trachea (SARS-CoV-2 [2]; day 5 p.i., 1 mg/kg): 1.729 SARS-CoV-2 RNA copies/β actin RNA copies and 2.0935 SARS-CoV-2 RNA copies/β actin RNA copies and 2.166 SARS-CoV-2 RNA copies/β actin RNA copies and 1.097 SARS-CoV-2 RNA copies/β actin RNA copies and 1.597 SARS-CoV-2 RNA copies/β actin RNA copies | titer - lung (SARS-CoV-2 [2]; day 5 p.i., 1 mg/kg): 7.002 log TCID50/g and 7.059 log TCID50/g and 6.976 log TCID50/g and 7.092 log TCID50/g and 6.453 log TCID50/g | titer - trachea (SARS-CoV-2 [2]; day 5 p.i., 1 mg/kg): 0 log TCID50/g and 2.787 log TCID50/g | titer - trachea (SARS-CoV-2 [2]; day 7 p.i.): 0 log TCID50/g | RNA - lung (SARS-CoV-2 [2]; day 7 p.i., 1 mg/kg): 0.6096 SARS-CoV-2 RNA copies/β actin RNA copies and 0.8217 SARS-CoV-2 RNA copies/β actin RNA copies and 0.4837 SARS-CoV-2 RNA copies/β actin RNA copies and 0.3749 SARS-CoV-2 RNA copies/β actin RNA copies and 1.469 SARS-CoV-2 RNA copies/β actin RNA copies | RNA - trachea (SARS-CoV-2 [2]; day 7 p.i., 1 mg/kg): 0.3702 SARS-CoV-2 RNA copies/β actin RNA copies and -0.0169 SARS-CoV-2 RNA copies/β actin RNA copies and -0.6383 SARS-CoV-2 RNA copies/β actin RNA copies and 0.1661 SARS-CoV-2 RNA copies/β actin RNA copies and 0.09095 SARS-CoV-2 RNA copies/β actin RNA copies | titer - lung (SARS-CoV-2 [2]; day 7 p.i., 1 mg/kg): 0 log TCID50/g and 1.7736 log TCID50/g | viral load in lungs versus untreated group (in words) (SARS-CoV-2 [2]; hamsters, day 5 p.i., 1 mg/kg): lower SARS-CoV-2 titers in the treated group compared to the untreated group; also recorded: lower viral loads in their trachea and lungs | viral load in trachea versus untreated group (in words) (SARS-CoV-2 [2]; hamsters, day 5 p.i., 1 mg/kg): statistically significant difference on TCID50 viral load in trachea; also recorded: reduces viral load in trachea; also recorded: significant reduction of the viral load in trachea on day 5; also recorded: the decrease was only statistically significant in the trachea | viral load in trachea versus untreated group (in words) (SARS-CoV-2 [2]; hamsters, day 5 p.i., listed as sulfonated Calpeptin, 1 mg/kg): reduces the viral load in the trachea | reversibility of covalent bond to cathepsin (CatL): reversible | cytotoxicity (in words) (LC-HK2 cells; LC-HK2, 72 h): no cytotoxicity up to low micromolar concentrations | Cell viability (% control) (LC-HK2 cells; 0.0006 μM): 101.91 % control and 100.87 % control and 100.74 % control | Cell viability (% control) (LC-HK2 cells; 0.0012 μM): 103 % control and 98.5 % control and 94.37 % control | Cell viability (% control) (LC-HK2 cells; 0.0024 μM): 103.56 % control and 100.06 % control and 97.94 % control | Cell viability (% control) (LC-HK2 cells; 0.0049 μM): 100.56 % control and 101.52 % control and 96.13 % control | Cell viability (% control) (LC-HK2 cells; 0.0098 μM): 103.39 % control and 98.29 % control and 93.66 % control | Cell viability (% control) (LC-HK2 cells; 0.0195 μM): 101 % control and 102.2 % control and 97.31 % control | Cell viability (% control) (LC-HK2 cells; 0.0391 μM): 101.11 % control and 100.82 % control and 93.61 % control | Cell viability (% control) (LC-HK2 cells; 0.0781 μM): 95.36 % control and 95.43 % control and 89.73 % control and 94.91 % control and 94.76 % control and 87.15 % control | Cell viability (% control) (LC-HK2 cells; 0.1563 μM): 94.91 % control and 93.6 % control and 89 % control and 98.33 % control and 105.61 % control and 98.34 % control | Cell viability (% control) (LC-HK2 cells; 0.3125 μM): 97.71 % control and 92.81 % control and 89.53 % control and 99.96 % control and 101.2 % control | Cell viability (% control) (LC-HK2 cells; 0.625 μM): 99.27 % control and 95.19 % control and 89.18 % control and 98.53 % control and 102.88 % control and 100.16 % control | Cell viability (% control) (LC-HK2 cells; 1.25 μM): 94.67 % control and 92.11 % control and 87.48 % control and 95.09 % control and 95.4 % control and 94.79 % control | Cell viability (% control) (LC-HK2 cells; 2.5 μM): 94.03 % control and 92.7 % control and 88.37 % control and 89.79 % control and 94.67 % control and 93.9 % control | Cell viability (% control) (LC-HK2 cells; 5 μM): 91.36 % control and 87.95 % control and 86.97 % control and 86.06 % control and 93.58 % control and 92 % control | Cell viability (% control) (LC-HK2 cells; 10 μM): 83.09 % control and 79.77 % control and 75 % control and 90.37 % control and 93.49 % control and 89.11 % control | Cell viability (% control) (LC-HK2 cells; 100 μM): 73.52 % control and 81.33 % control and 73.97 % control | EC50 (SARS-CoV-2 [3]; LC-HK2, RT-qPCR, 72 h post-infection, read-out: Viral titer EC50): 630 nM | Viral titer (% control) (SARS-CoV-2 [3]; 0.0006 μM): 100 % control | Viral titer (% control) (SARS-CoV-2 [3]; 0.0012 μM): 100 % control | Viral titer (% control) (SARS-CoV-2 [3]; 0.0024 μM): 100 % control | Viral titer (% control) (SARS-CoV-2 [3]; 0.0049 μM): 100 % control | Viral titer (% control) (SARS-CoV-2 [3]; 0.0098 μM): 100 % control | Viral titer (% control) (SARS-CoV-2 [3]; 0.0195 μM): 100 % control
